# Activity calls are given as the source filed them. The rule behind the calls is not given here.
# Tests used:
# Assay type in all cases: functional
# LoVo = experiment: Cytotoxicity against human LoVo cells by MTT assay
# [1] = (§1) Cytotoxicity against human NSCLC-N6-L16 cells by MTT assay
# LNCaP = experiment: Cytotoxicity against human LNCAP cells by MTT assay
# [2] = Cytotoxicity against human IGROV-ET cells by MTT assay
# PANC-1 = experiment: Cytotoxicity against human PANC1 cells by MTT assay
# Homo sapiens = organism: Homo sapiens; experiment: as §1
Structure (SMILES),GI50 (LoVo),GI50 [1],GI50 (LNCaP),GI50 [2],GI50 (PANC-1),Activity (Homo sapiens),Activity (PANC-1)
CC(C)C(C)C1OC1[C@@H](C)[C@@]1(O)CC[C@H]2[C@@H]3CC=C4C[C@@H](O)CC[C@]4(C)[C@H]3CC[C@@]21C (stereo not given in full),4.02 µg/mL,0.6 µg/mL,6.42 µg/mL,1.68 µg/mL,2.74 µg/mL,,
CC1=C(CCC(C)C)OC[C@]23CC[C@H]4[C@@H](CC[C@H]5C[C@@H](O)CC[C@@]54C)[C@@H]2CC[C@H]13,8.29 µg/mL,,2.88 µg/mL,6.66 µg/mL,,inactive,inactive
CC(C)CC1OC1[C@@H](C)[C@@]1(O)CC[C@H]2[C@@H]3CC=C4C[C@@H](O)CC[C@]4(C)[C@H]3CC[C@@]21C (stereo not given in full),6.23 µg/mL,2 µg/mL,3.09 µg/mL,1.24 µg/mL,2.17 µg/mL,,
CC1=C(CCC(C)C)OC[C@]23CC[C@H]4[C@@H](CC=C5C[C@@H](O)CC[C@@]54C)[C@@H]2CC[C@H]13,6.91 µg/mL,,3.52 µg/mL,7.95 µg/mL,8.92 µg/mL,inactive,
